Source: publication PMC8251916 (Chemistry (Weinheim an Der Bergstrasse, Germany), 2021)

Legend:
[1] = test system: F21T-K+ (human telomeric G-quadruplex, mixed parallel/hybrid); test: FRET melting assay, human telomeric G4 in potassium buffer; format: binding; settings: 200 nM DNA, PIPER and 3 not reliable (spectral overlap)
Protocol: (§1) With the library in hand, we began our investigation into G4 stabilization by conducting a Förster resonance energy transfer (FRET) melting assay to assess DNA stabilization using the procedure outlined by De Cian et. al. ^[13] […] The sequences examined (at 200 nM) were the human telomeric G4 in potassium buffer (F21T‐K^+, mixed parallel/hybrid G4) ^[14] and sodium buffer (F21T‐Na^+, antiparallel G4), ^[15] the c‐Myc promoter G‐quadruplex (FmycT‐K^+, parallel G4), ^[16] a polymorphic G4 found in T. brucei (FEBR1T‐K^+, a mixed G4 topology), ^[6b] and a hairpin duplex DNA sequence (F10T‐K^+). Together, these sequences represent targets for therapeutic intervention to treat parasitic infections, ^[6b] or cancer. ^[1b] The topology of each sequence was confirmed independently via circular dichroism (CD, Figure S1). […]
(§2) FRET melting assays were performed to assess ligand affinity for duplex and G-quadruplex
(§3) DNA. Briefly, oligonucleotides of interest were obtained labelled at the 5’ and 3’ ends with FAM (a fluorescence donor) and TAMRA (a fluorescence quencher), respectively. In the folded state, proximity of the donor and quencher result in no observed fluorescence from FAM, since energy is transferred non-radiatively to TAMRA by FRET. As the temperature is raised and the secondary structure denatures, the fluorophores move further apart and the fluorescence signal increases. From the resulting curve, the characteristic melting temperature (Tmax, also referred to as Tm) is defined as the temperature which corresponds to the maxima of the first derivative of the normalised fluorescence signal. The change in melting temperature (ΔTm) induced by the presence of a small molecule ligand provides an indication of the ligand’s ability to stabilise the DNA structure. FRET experiments were performed according to the […]
(§4) procedure reported by De Cian and co-workers[S3] on a Stratagene MX3005P. The method consisted of holding at 25 °C for 5 min, before heating at 1 °C/min to 96 °C in 1 °C increments, […]

[2] = test system: F21T-Na+ (human telomeric G-quadruplex, antiparallel); test: FRET melting assay, human telomeric G4 in sodium buffer; format: binding; settings: 200 nM DNA, PIPER and 3 not reliable (spectral overlap)
Protocol: as §1, §2, §3, §4

[3] = test system: FmycT-K+ (c-Myc promoter G-quadruplex, parallel); test: FRET melting assay, c-Myc promoter G4; format: binding; settings: 200 nM DNA, PIPER and 3 not reliable (spectral overlap)
Protocol: as §1, §2, §3, §4

[4] = test system: Febr1T-K+ (T. brucei G-quadruplex); test: FRET melting assay, T. brucei G4; format: binding; settings: 200 nM DNA, PIPER and 3 not reliable (spectral overlap)
Protocol: as §1, §2, §3, §4

[5] = test system: F10T-K+ (hairpin duplex DNA); test: FRET melting assay, hairpin duplex DNA; format: binding; settings: 200 nM DNA, PIPER and 3 not reliable (spectral overlap)
Protocol: as §1, §2, §3, §4

MRC5 non-tumoral cells = test: Cytotoxicity, alamarBlue assay, MRC5; format: cell-based, human; settings: Homo sapiens, MRC5, 72 h, 72 h incubation, alamarBlue fluorescence; read-out: absolute EC50 MRC5
Protocol: (§5) Doxorubicin, suramin and miltefosine were used as control compounds.[ ^6b , ^9 ] After incubation with varied concentrations of the compounds for 72 h, cell viability was measured using either an alamarBlue™ assay (for MRC5, HeLa and T. brucei) or MTT assay (for L. major). Absolute EC50 values and selectivity indexes were then calculated from dose‐response curves (Table 2 and S14). […]
(§6) Cell culture reagents were purchased from Thermo Fisher Scientific (Waltham, MA, USA) and used as-is. The Dulbecco’s Minimal Essential Medium (DMEM) formulation contained either high glucose (4.5 g/L, catalogue number: 10569) or low glucose (1 g/L, catalogue number:
(§7) 10567). RPMI-1640 was provided without sodium pyruvate and with L-glutamine (catalogue number: 11875). Phosphate Buffered Saline (PBS) contained NaCl (9 g/L), KH2PO4 (144 mg/L) and Na2HPO4-7.H2O (795 mg/L, catalogue number: 10010049). TrypLE Express™ was provided with EDTA (458 mg/L) and without Phenol Red (catalogue number: 12604021).
(§8) MRC-5 cells (human lung fibroblasts) were grown in monolayer (37 °C, 5 % CO2 and 100 % humidity) in DMEM medium (1 g/L glucose), supplemented with 10% heat-inactivated Fetal Bovine Serum (hiFBS), 2 mM L-glutamine, 100 U / mL penicillin and […]
(§9) streptomycin. […]
(§10) Cells were cultured according to ATCC recommendations and were used for the experiments while in the exponential growth phase. […]
(§11) Cytotoxicity was measured through the alamarBlue® assay (Thermo Fisher Scientific).[S6,S13] Briefly, 5×10^3 MRC-5 or HeLa cells were seeded in 96-wells plates (100 µL / well) in the presence of increasing concentrations of compound. After 72 hrs of incubation at 37 °C, 20 µL of alamarBlue® solution (110 ng / ml) was added to each well and cells were reincubated for 4 hrs at 37 °C. Then, 50 µL of 3 % SDS were added to each well. The plate was incubated at 37 °C for an extra hour and then analysed by fluorescence with an Infinite F200 plate reader (TECAN Austria, GmbH). The excitation wavelength was fixed at 550 nm and the emission wavelength at 590 nm. The results are expressed as the concentration of compound that reduces

[6] = test system: HeLa cervical carcinoma cells; test: Cytotoxicity, alamarBlue assay, HeLa; format: cell-based, human; settings: Homo sapiens, HeLa; 72 h incubation, alamarBlue fluorescence; read-out: absolute EC50 HeLa
Protocol: as §5, §6, §7
MRC-5 cells (human lung fibroblasts) were grown in monolayer (37 °C, 5 % CO2 and 100 % humidity) in DMEM medium (1 g/L glucose), supplemented with 10% heat-inactivated Fetal Bovine Serum (hiFBS), 2 mM L-glutamine, 100 U / mL penicillin and […] streptomycin. HeLa (Human cervical carcinoma cell line) cells were maintained at 37 °C and 5 % CO2 in high glucose DMEM (4.5 g / L) supplemented with 10% hiFBS, 100 U / ml penicillin, […] streptomycin, 2 mM L-glutamine and non-essential aminoacids (1X).
as §10, §11

T. brucei = test: Trypanocidal activity, alamarBlue assay; format: cell-based; settings: Trypanosoma brucei; 72 h incubation, alamarBlue fluorescence; read-out: absolute EC50 T. brucei
Protocol: as §5, §6, §7, §8, §9, §10
hiFBS. Parasites were split every other day and maintained in their experimental growth phase (below 2 million parasites per mL).
as §11

L. major = test: Leishmaniacidal activity, MTT assay; format: cell-based; settings: Leishmania major; 72 h incubation, MTT absorbance; read-out: absolute EC50 L. major
Protocol: Doxorubicin, suramin and miltefosine were used as control compounds.[ ^6b , ^9 ] After incubation with varied concentrations of the compounds for 72 h, cell viability was measured using either an alamarBlue™ assay (for MRC5, HeLa and T. brucei) or MTT assay (for L. major). Absolute EC50 values and selectivity indexes were then calculated from dose‐response curves (Table 2 and S14).
Invitrogen). L. major promastigotes (MHOM/IL/80/Friedlin) were cultured at 28 °C, 5 % CO2 in modified RPMI-1640 medium (Thermo Fisher Scientific, Waltham, MA, USA) with 10% hiFBS. Parasites were split every other day and maintained in their experimental growth phase (below 2 million parasites per mL). […]
The results are expressed as the concentration of compound that reduces cell growth by 50 % versus untreated control cells (EC50) using GraphPad Prism 7 (GraphPad Software) to fit the data to a sigmoidal curve. Data are presented as the average of three independent measurements all conducted in triplicate conditions. […]
The leishmaniacidal activity of the compounds on promastigotes L. major (MHOM/IL/80/Friedlin) was carried out as previously described.[S14] Briefly, 4 × 10^6 / mL promastigotes were incubated for 72 h at 28 °C in 96-well plates (50 µL/well) in the presence of increasing concentration of compounds. Cell proliferation was determined using an MTT-based assay (Sigma-Aldrich). Thus, after the 72 h incubation, 10 µL of MTT (5 mg/ml) were added to each well and parasites were reincubated for 4 hrs at 28 °C. Then, 50 µL of 20 % SDS were added to each well. The plate was then incubated at 37°C for 4-16 hrs and analysed using an Infinite F200 plate reader (TECAN Austria, GmbH). The absorbance was measured […]
at a wavelength of 540 nm and the EC50 was calculated as described above. Data are presented as the average of three independent measurements, all conducted in triplicate conditions. […]

[7] = 5 μM ligand, 10 mM KCl, 90 mM LiCl, 10 mM Li cacodylate

Structure (SMILES) | ΔTm F21T-K+ ([1]; 10 µM ligand) | ΔTm F21T-Na+ ([2]; 10 µM ligand) | ΔTm FmycT-K+ ([3]; 10 µM ligand) | ΔTm Febr1T-K+ ([4]; 10 µM ligand) | ΔTm F10T-K+ ([5]; 10 µM ligand) | EC50 (MRC5 non-tumoral cells) | EC50 [6] | EC50 (T. brucei) | EC50 (L. major) | ΔTm F21T-K+ ([1]; 1 µM ligand) | ΔTm F21T-Na+ ([2]; 1 µM ligand) | ΔTm FmycT-K+ ([3]; 1 µM ligand) | ΔTm Febr1T-K+ ([4]; 1 µM ligand) | ΔTm F10T-K+ ([5]; 1 µM ligand) | ΔTm F21T-K+ [1, 7] | ΔTm F21T-Na+ ([2]; 5 μM ligand, 100 mM NaCl, 10 mM Li cacodylate) | ΔTm FmycT-K+ ([3]; 5 μM ligand, 1 mM KCl, 99 mM LiCl, 10 mM Li cacodylate) | ΔTm Febr1T-K+ [4, 7] | ΔTm F10T-K+ [5, 7]
CN1CCN(CCCN2C(=O)c3ccc(C(=O)c4ccc5c(c4)C(=O)N(CCCN4CCN(C)CC4)C5=O)cc3C2=O)CC1 [Compound 7] | -3 ± 1 °C | -3 ± 2 °C | -3 ± 1 °C | 1 ± 1 °C | 0 ± 1 °C | > 100 µM | > 100 µM | 70 ± 13 µM | > 100 µM | – | – | – | – | – | – | – | – | – | –
CN1CCN(CCCN2C(=O)c3ccc(C(c4ccc5c(c4)C(=O)N(CCCN4CCN(C)CC4)C5=O)(C(F)(F)F)C(F)(F)F)cc3C2=O)CC1 [Compound 6] | -2 ± 1 °C | -8 ± 1 °C | -4 ± 1 °C | 2 ± 1 °C | 0 ± 1 °C | > 100 µM | > 100 µM | 36 ± 2 µM | > 100 µM | – | – | – | – | – | – | – | – | – | –
COc1cccc2c1C(=O)c1c(O)c3c(c(O)c1C2=O)C[C@@](O)(C(=O)CO)C[C@@H]3O[C@H]1C[C@H](N)[C@H](O)[C@H](C)O1 [Doxorubicin, reference compound] | – | – | – | – | – | – | 0.4 ± 0.05 µM | – | – | 10 ± 1 °C | 0 ± 1 °C | 8 ± 1 °C | 5 ± 1 °C | 2 ± 1 °C | – | – | – | – | –
CCCCCCCCCCCCCCCCOP(=O)([O-])OCC[N+](C)(C)C [Miltefosine, reference compound] | – | – | – | – | – | – | – | – | 5.8 ± 0.01 µM | – | – | – | – | – | – | – | – | – | –
CN1CCN(CCCN2C(=O)c3ccc(Oc4ccc5c(c4)C(=O)N(CCCN4CCN(C)CC4)C5=O)cc3C2=O)CC1 [Compound 5] | -3 ± 1 °C | -3 ± 1 °C | -3 ± 1 °C | 1 ± 1 °C | 0 ± 1 °C | > 100 µM | > 100 µM | 67 ± 18 µM | > 100 µM | – | – | – | – | – | – | – | – | – | –
O=C1c2ccc3c4ccc5c6c(ccc(c7ccc(c2c37)C(=O)N1CCN1CCCCC1)c64)C(=O)N(CCN1CCCCC1)C5=O [PIPER, reference compound] | > 40 °C | 22 ± 1 °C | 26 ± 1 °C | 38 ± 7 °C | – | – | – | – | – | 33 ± 1 °C | – | 23 ± 1 °C | 21 ± 4 °C | 0 ± 1 °C | 37±2 °C | 17±2 °C | 21±2 °C | 33±1 °C | 1±1 °C
Cc1ccc(C(=O)Nc2ccc(S(=O)(=O)O)c3cc(S(=O)(=O)O)cc(S(=O)(=O)O)c23)cc1NC(=O)c1cccc(NC(=O)Nc2cccc(C(=O)Nc3cc(C(=O)Nc4ccc(S(=O)(=O)O)c5cc(S(=O)(=O)O)cc(S(=O)(=O)O)c45)ccc3C)c2)c1 [Suramin, reference compound] | – | – | – | – | – | – | – | 0.044 ± 0.006 µM | – | – | – | – | – | – | – | – | – | – | –
CN1CCN(CCCn2c(=O)c3cc4c(=O)n(CCCN5CCN(C)CC5)c(=O)c4cc3c2=O)CC1 [Compound 8] | 1 ± 1 °C | 1 ± 1 °C | -2 ± 1 °C | -2 ± 1 °C | 0 ± 1 °C | > 100 µM | > 100 µM | 52 ± 7 µM | > 100 µM | – | – | – | – | – | – | – | – | – | –
C[n+]1ccc(-c2c3nc(c(-c4cc[n+](C)cc4)c4ccc([nH]4)c(-c4cc[n+](C)cc4)c4ccc([nH]4)c(-c4cc[n+](C)cc4)c4nc2C=C4)C=C3)cc1 [TMPyP4, reference compound] | – | – | – | – | – | – | – | – | – | 33 ± 1 °C | 31 ± 2 °C | 34 ± 1 °C | 32 ± 2 °C | 9 ± 1 °C | – | – | – | – | –
